According to ChEMBL document CHEMBL3217638, “Synthetic modulators of the retinoic acid receptor-related orphan receptors” (Medchemcomm, 2013):

Tests used:
[1] = target: T1, Nuclear receptor ROR-alpha (Homo sapiens, UniProt P35398); experiment: Inverse agonist activity at GAL4-fused ROR alpha (unknown origin) expressed in HEK293 cells assessed as inhibition of transcriptional activity after 24 hrs by luciferase reporter gene assay; format: cell-based
T1 sequence (P35398 whole entry): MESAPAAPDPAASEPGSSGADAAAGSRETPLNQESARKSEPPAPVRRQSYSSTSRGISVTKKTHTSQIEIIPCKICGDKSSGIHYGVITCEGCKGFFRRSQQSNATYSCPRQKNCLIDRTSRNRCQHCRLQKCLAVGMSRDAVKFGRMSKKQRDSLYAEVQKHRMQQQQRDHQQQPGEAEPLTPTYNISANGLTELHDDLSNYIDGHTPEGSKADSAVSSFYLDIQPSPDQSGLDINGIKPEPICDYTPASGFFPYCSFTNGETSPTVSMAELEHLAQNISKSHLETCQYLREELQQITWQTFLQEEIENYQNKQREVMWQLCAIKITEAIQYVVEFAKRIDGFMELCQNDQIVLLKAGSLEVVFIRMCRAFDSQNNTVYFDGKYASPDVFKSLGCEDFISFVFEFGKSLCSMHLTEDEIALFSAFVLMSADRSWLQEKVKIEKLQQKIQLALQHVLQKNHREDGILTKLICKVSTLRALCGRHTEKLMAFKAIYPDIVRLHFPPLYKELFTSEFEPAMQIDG

[2] = Plasma concentration in mouse at 10 mg/kg, ip after 4 hrs; format: ADME, organism-based; parameters: dose 10 mg/kg, route intraperitoneal
[3] = target: T1, Nuclear receptor ROR-alpha; experiment: Displacement of 25-[3H]hydroxycholesterol from GST-tagged ROR alpha ligand binding domain (unknown origin) expressed in Escherichia coli BL21 gold (DE3) cells by radioligand competition assay
[4] = Plasma concentration in mouse at 10 mg/kg, ip after 0.5 hrs; format: ADME, organism-based; parameters: dose 10 mg/kg, route intraperitoneal
[5] = target: T2, Nuclear receptor ROR-gamma (Homo sapiens, UniProt P51449); experiment: Displacement of 25-[3H]hydroxycholesterol from ROR gamma (unknown origin) by competitive binding assay
T2 sequence (P51449 whole entry): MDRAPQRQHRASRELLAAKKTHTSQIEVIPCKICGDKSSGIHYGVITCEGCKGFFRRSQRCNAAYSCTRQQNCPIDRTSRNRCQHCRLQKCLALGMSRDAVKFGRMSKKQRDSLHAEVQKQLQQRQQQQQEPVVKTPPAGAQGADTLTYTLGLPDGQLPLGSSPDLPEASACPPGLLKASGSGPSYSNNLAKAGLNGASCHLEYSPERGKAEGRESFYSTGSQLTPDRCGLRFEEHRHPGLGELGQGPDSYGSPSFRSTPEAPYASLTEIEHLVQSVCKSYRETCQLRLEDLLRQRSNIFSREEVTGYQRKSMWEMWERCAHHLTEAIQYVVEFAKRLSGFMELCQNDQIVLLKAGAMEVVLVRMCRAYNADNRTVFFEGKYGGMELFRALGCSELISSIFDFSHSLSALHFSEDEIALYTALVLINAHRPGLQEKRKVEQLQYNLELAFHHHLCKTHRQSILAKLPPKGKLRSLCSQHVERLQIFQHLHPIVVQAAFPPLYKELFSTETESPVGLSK

[6] = target: T2, Nuclear receptor ROR-gamma; experiment: Displacement of 25-[3H]hydroxycholesterol from GST-tagged ROR gamma ligand binding domain (unknown origin) expressed in Escherichia coli BL21 gold (DE3) cells by radioligand competition assay
[7] = target: T3, Nuclear receptor ROR-gamma (Homo sapiens) (UniProt P51449); experiment: Binding affinity to human ROR gamma ligand binding domain assessed as thermal stability shift by circular dichroism analysis
T3 sequence (whole entry): T2 sequence (P51449 whole entry)

[8] = target: T2, Nuclear receptor ROR-gamma; experiment: Agonist activity at human His6-tagged ROR gamma ligand binding domain (residues 262 to 507) expressed in Escherichia coli BL21 (DE3) cells assessed as increase in recruitment of coactivator peptide by AlphaScreen biochemical assay; format: functional
[9] = target: T2, Nuclear receptor ROR-gamma; experiment: Agonist activity at full length human ROR gamma expressed in human Jurkat cells assessed as IL17 promoter activation by luciferase reporter gene assay; format: functional, cell-based
[10] = target: T4, Nuclear receptor ROR-alpha (Mus musculus) (UniProt P51448); conditions: CHO-K1
T4 sequence (whole entry): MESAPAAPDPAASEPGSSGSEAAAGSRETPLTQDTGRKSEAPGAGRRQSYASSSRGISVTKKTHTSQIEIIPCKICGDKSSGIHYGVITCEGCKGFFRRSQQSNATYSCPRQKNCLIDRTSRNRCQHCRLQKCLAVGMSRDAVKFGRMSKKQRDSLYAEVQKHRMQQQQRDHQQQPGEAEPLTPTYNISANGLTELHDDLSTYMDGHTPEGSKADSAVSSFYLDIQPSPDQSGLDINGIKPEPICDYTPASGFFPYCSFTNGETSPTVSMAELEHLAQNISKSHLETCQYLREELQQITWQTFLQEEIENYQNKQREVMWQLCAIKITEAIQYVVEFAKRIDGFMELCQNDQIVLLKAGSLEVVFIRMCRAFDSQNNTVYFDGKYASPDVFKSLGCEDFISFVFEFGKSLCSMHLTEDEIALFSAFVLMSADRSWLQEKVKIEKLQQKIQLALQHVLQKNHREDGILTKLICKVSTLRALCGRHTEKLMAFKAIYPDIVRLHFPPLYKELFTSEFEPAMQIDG
Description: Inverse agonist activity at mouse ROR alpha expressed in CHO-K1 cells after 24 hrs by luciferase reporter gene assay relative to vehicle control response

[11] = target: T5, Nuclear receptor ROR-gamma (Mus musculus) (UniProt P51450); conditions: CHO-K1
T5 sequence (whole entry): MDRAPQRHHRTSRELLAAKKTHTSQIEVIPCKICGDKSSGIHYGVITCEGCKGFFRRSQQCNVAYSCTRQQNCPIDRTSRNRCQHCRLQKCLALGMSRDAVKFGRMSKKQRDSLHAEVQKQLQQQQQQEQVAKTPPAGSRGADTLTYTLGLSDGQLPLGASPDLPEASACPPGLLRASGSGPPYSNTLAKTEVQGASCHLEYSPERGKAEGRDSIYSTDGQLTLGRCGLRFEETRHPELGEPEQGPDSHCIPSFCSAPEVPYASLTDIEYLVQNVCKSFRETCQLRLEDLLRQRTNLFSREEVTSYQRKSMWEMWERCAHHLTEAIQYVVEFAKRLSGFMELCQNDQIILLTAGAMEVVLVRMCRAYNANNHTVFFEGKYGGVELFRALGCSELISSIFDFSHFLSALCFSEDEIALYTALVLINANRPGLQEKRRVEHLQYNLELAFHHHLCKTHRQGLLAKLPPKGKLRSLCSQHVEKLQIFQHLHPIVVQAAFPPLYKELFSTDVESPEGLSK
Description: Inverse agonist activity at mouse ROR gamma expressed in CHO-K1 cells after 24 hrs by luciferase reporter gene assay relative to vehicle control response

[12] = target: T6, Oxysterols receptor LXR-alpha (Homo sapiens) (UniProt Q13133); experiment: Activation of GAL4-fused LXR alpha (unknown origin) expressed in HEK293T cells after 20 hrs relative to T0901317; format: cell-based; conditions: HEK-293T
T6 sequence (whole entry): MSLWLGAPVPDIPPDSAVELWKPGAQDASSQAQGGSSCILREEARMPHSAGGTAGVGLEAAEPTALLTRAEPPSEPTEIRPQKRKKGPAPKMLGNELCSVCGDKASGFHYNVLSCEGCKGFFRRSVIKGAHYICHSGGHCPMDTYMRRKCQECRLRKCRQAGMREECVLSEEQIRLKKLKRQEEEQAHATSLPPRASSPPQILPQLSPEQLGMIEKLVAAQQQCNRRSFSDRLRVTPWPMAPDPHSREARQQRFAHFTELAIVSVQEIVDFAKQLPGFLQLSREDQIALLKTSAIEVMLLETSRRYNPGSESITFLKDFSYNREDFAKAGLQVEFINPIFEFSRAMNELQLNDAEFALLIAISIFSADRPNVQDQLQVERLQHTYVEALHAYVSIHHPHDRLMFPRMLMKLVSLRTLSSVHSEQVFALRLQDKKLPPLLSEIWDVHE

For `O=S(=O)(Nc1ccc(C(O)(C(F)(F)F)C(F)(F)F)cc1)c1cccs1`, the EC50 [1] was 0.48 µM, the concentration at 4 h [2] was > 0.36 µM and the Ki [3] was 0.22 µM. For the same molecule, the concentration at 0.5 h [4] was 9 µM.

With `CC(c1ccccc1)(c1ccc(O)cc1)c1ccc(O)cc1` the IC50 [5] was > 10 µM.

Molecule `CC(C)CCC[C@@H](C)[C@H]1CC[C@H]2[C@@H]3[C@@H](O)C=C4C[C@@H](O)CC[C@]4(C)[C@H]3CC[C@]12C` has a Ki [6] of 0.01 µM.

With `CC(C)CCC(O)[C@@H](C)[C@H]1CC[C@H]2[C@@H]3CC=C4C[C@@H](O)CC[C@]4(C)[C@H]3CC[C@]12C` (some centres undefined) the melting temperature shift (delta Tm) [7] was 7.3 °C.

`CC(C)CCC[C@@H](C)[C@H]1CC[C@H]2[C@@H]3[C@H](O)C=C4C[C@@H](O)CC[C@]4(C)[C@H]3CC[C@]12C` gave a Ki [6] of 0.01 µM.

For `CC(C)CCC[C@@](C)(O)[C@H]1CC[C@H]2[C@@H]3CC=C4C[C@@H](O)CC[C@]4(C)[C@H]3CC[C@@]21C`, the EC50 [8] was 0.02 µM.

With `CCC(=O)Nc1ccc2nn(-c3ccc(CC)cc3)nc2c1` the EC50 [9] was 0.1 µM and the melting temperature shift (delta Tm) [7] was 3 °C.

`CCCCC(O)(Cn1cncn1)c1ccc(Cl)cc1Cl` (centres undefined) showed an IC20 [10] of 10 µM and an IC20 [11] of 3 µM.

With `O=S(=O)(c1ccccc1)N(CC(F)(F)F)c1ccc(C(O)(C(F)(F)F)C(F)(F)F)cc1` the IC20 [10] was 12 µM.

For `CCC(C)c1cc(C(C)(C)c2ccc(O)c(C(C)CC)c2)ccc1O` (centres undefined), the IC50 [5] was 0.15 µM.

In the case of `CC(C)CC[C@@H](O)[C@@H](C)[C@H]1CC[C@H]2[C@@H]3CC=C4C[C@@H](O)CC[C@]4(C)[C@H]3CC[C@]12C` [22(R)-HYDROXYCHOLESTEROL], the EC50 [8] is reported as 0.02 µM.

For `OC(c1ccc(-c2ccc(CN3CCN(Cc4ccncc4)CC3)cc2)c(F)c1)(C(F)(F)F)C(F)(F)F`, the Activity [12] was < 5%.

In the case of `Cc1cccc(C(=O)Nc2cc(-c3ccccc3)no2)c1`, the EC50 [9] is reported as 0.1 µM and the melting temperature shift (delta Tm) [7] is reported as 3 °C.
